Here are results for four molecules from patent US9265756B2, “Crystalline forms of grapiprant” (Aratana Therapeutics Inc., priority 2014, dated 2016).

Data set [1] can be described thus: solid form change on heating (XRPD). The class given is physicochemical. The protocol:
The X-ray powder diffraction (XRPD) pattern was determined using an X-ray diffractometer. The instrument was equipped with a long fine focus X-ray tube (with a copper Kα radiation source operated at 45 kV/40 mA), and a diffracted beam monochromator mounted in front of a scintillation detector. The instrument parameters included a scan range of 3.0 to 40.0 degrees 2-theta, a step size of 0.02 degrees 2-theta, and a scan time of 12.7 seconds per step. The instrument was interfaced with a computer for data acquisition and analysis. Each sample was uniformly crushed with a spatula edge and placed on a quartz, zero-background holder.

The test system of data set [2] is mechanical hyperalgesia induced by carrageenan model. The following applies: cited from earlier work.
Data set [3] has as its system thermal hyperalgesia induced by intraplantar injection of PGE2. The following applies: oral administration; cited from earlier work.
For data set [4], the system named is complete Freund's adjuvant-induced chronic inflammatory pain response. The following applies: cited from earlier work.
Data set [5] relates to other human prostanoid receptor subtypes. The following applies: cited from earlier work.
A short description of data set [6]: water activity relating Forms A and D. The class given is physicochemical. As to conditions: room temperature. On the procedure:
Overall, FIG. 1 summarizes the relationship of each polymorphic form with relationship to each other. Form J may be converted to Form D by drying in air (1). Form J may be converted to Form A by slurry in DCM/acetone (<1:2 v/v) at 25° C. (2). Form A may be converted to Form J by precipitation from DCM/n-heptane (2:1 v/v) (3). Forms A and D have an aw value of about 0.6 at room temperature (4). Form X may be converted from a slurry mixture of Form D and Form J in DCM/acetone or DCM/n-heptane (2:1 v/v) at room temperature (5). Form X may be converted to Form A by slurry in DCM/acetone (1:1 v/v) (6). Form A may be converted to Form X by slurry in DCM/acetone (≦1:3 v/v (7) or 1:2 v/v with 0.3 wt. % water (8)). Form X2 may be converted to Form A by slurry in DCM/acetone (1:3 v/v) with 0.3 wt. % water (9). Form A may be converted to Form X2 by slurry in acetone with 0.3 wt. % water (10). Form X2 may be converted to Form X3 by drying (11). Form X2 may also be generated by slurry of Forms A and X3 in DCM/acetone (1:3 v/v) with 0.3 wt. % water (12).

A short description of data set [7]: stability of crystalline forms (slurry experiments). As to conditions: in 1:1 DCM/acetone (v/v).
Experimental: The stability of the crystalline forms was analyzed using slurry experiments. A portion of the solvent of interest was saturated with grapiprant in a small vial. Additional grapiprant was then added to the vial, and the resulting slurry was stirred using a magnetic stir bar.

Entries after “also recorded” stand apart in the source; their conditions may differ.

For `CCc1nc2c(C)nc(C)cc2n1-c1ccc(CCNC(=O)NS(=O)(=O)c2ccc(C)cc2)cc1` [Form J], in data set [1] (heating to 120° C.), the “form after heating (XRPD)” value is “becomes Form A; also recorded: converted into Form A”.

Take `CCc1nc2c(C)nc(C)cc2n1-c1ccc(CCNC(=O)NS(=O)(=O)c2ccc(C)cc2)cc1` [Form X]: the “form after heating (XRPD)” value in data set [1] (heating to 110° C.) is “becomes amorphous; also recorded: converted into amorphous”.

`CCc1nc2c(C)nc(C)cc2n1-c1ccc(CCNC(=O)NS(=O)(=O)c2ccc(C)cc2)cc1` [grapiprant, N-{2-[4-(2-ethyl-4,6-dimethyl-1H-imidazo[4,5-c]pyridin-1-yl)phenyl]ethyl}-N′-[(4-methylphenyl)sulfonyl]urea]: in data set [2], the “effect on mechanical hyperalgesia” value is on record as “significantly reduces”. Moreover, the “ED50, reduction of thermal hyperalgesia” value in data set [3] was 12.8 mg/kg. The “effect on chronic inflammatory pain response” value in data set [4] is on record as “reverses”. Moreover, the “selectivity for the EP4 receptor over other human prostanoid receptor subtypes” value in data set [5] is “highly selective”.

Turning to `CCc1nc2c(C)nc(C)cc2n1-c1ccc(CCNC(=O)NS(=O)(=O)c2ccc(C)cc2)cc1` [Form A], the aw value entry in data set [6] is recorded as “about 0.6”. The “relative stability of crystalline forms” value in data set [7] is recorded as “more stable than Form J”.
